Measured values from patent US9138659B2, “Compositions, methods, and systems relating to controlled crystallization and/or nucleation of molecular species” (Massachusetts Institute of Technology, priority 2010, dated 2015).
≈ marks a conversion by molar mass, not a printed value.

Experiments:
Format in all cases: physicochemical
[1] = Isothermal titration calorimetry of ASA adsorption onto microgels; conditions: 38/62 ethanol/water, 23° C
Protocol: The ASA-polymer interactions were further quantified with the solute adsorption enthalpy via Isothermal Titration calorimetry (ITC), which also helps to deepen the understanding of partitioning effect. […] The data are presented both as instantaneous enthalpies at a given concentration, ΔHASA-gel (top), and as cumulative enthalpies up to a certain concentration, ΔHASA-gel ^tot (bottom).
Isothermal titration calorimetry (ITC): ITC measurements were performed on a TA Instruments NanoITC calorimeter. All experiments were performed at 23° C. using injections of ΔV=10 μL of titrant, with a waiting time of 1000 sec in between injections and 25 injections per measurement. For all measurements, The differential heat input, q(t), was measured as a function of time t over all injections, followed by integration of q(t) over each individual injection to obtain the molar heat of injection, Q(T,P,c). The molar heat of injection can then be cumulatively added over all previous injections, yielding the total molar heat, Qtot(T,P,c). […]
where ΔHASA-gel is the molar enthalpy of interaction between ASA and the microgel particles, and ΔHdil^i is the molar enthalpy of dilution of component i (ASA or gel, respectively) in 38/62 (v/v) ethanol/water. […] (X) was used to subtract the measured dilution enthalpies from the initial measurements of Q(T,P,c) in order to obtain ΔHASA-gel. […]

[2] = Nucleation induction time of aspirin on crosslinked polymer plates (non-porous and porous); conditions: for average induction time τ from linear fit ln(P)=−t/τ: bulk polymerization
Protocol: To further quantify the surface chemistry effect on nucleation kinetics, nucleation induction time distribution was measured with the API of interest. Nucleation induction time is an indicator of the surface nucleation activity because it can be shortened when the presence of a surface lowers the free energy barrier of nucleation. Due to the stochastic nature of nucleation events, a significant number of experiments were performed to obtain the probability distribution of nucleation induction time.
As an example of induction time measurements, polymer plates were prepared by UV polymerizing the mixture of a monomer and the crosslinker divinylbenzene held by Teflon holders. Subsequent drying under vacuum removed unreacted monomer molecules. Monomers used to synthesize polymer plates were 4-Acryloylmorpholine (AM), 4-Hydroxybutyl acrylate (HBA), 2-Carboxyethyl acrylate (CEA), and styrene (STY). AM, HBA, and CEA served as positive controls, whilst STY a negative control. Each polymer plate was inserted together with the Teflon holder vertically into the aspirin solution, and then the solution was quenched to initiate nucleation. The starting concentration and the nucleation temperature were chosen such that the supersaturation produced was high enough to give reasonably short induction time but low enough to suppress bulk nucleation. 48 vials of each polymer sample were tested simultaneously and the fraction of vials crystallized was recorded as a function of time to produce a plot of cumulative probability distribution of induction time, as shown in FIG. 4.
In FIG. 4: Cumulative probability distribution of nucleation induction time (a) and statistical analysis on the same data sets (b) obtained with polymers synthesized via bulk polymerization. Crystallization of aspirin was performed at supersaturation S=4.75. The linear regression in […] follows the formula ln(P)=−t/τ to obtain the average induction time τ. P is the probability for no crystallization event to occur within time t. […] The results of linear fitting are i) STY ln(P)=−t/243.9, R^2=0.987; ii) CEA ln(P)=−t/113.6, R^2=0.978; iii) HBA ln(P)=−t/38.2, R^2=0.995.
For example, by the PIPS method, the mixture of a monomer and the crosslinker divinylbenzene dissolved in ethanol was subjected to UV irradiation to initiate the polymerization. As the molecular weight of the polymer increases to a critical point, dynamic asymmetry between solvent molecules and the polymer lead to nucleation and growth of solvent-rich regions within the polymer matrix. Subsequent evaporation of the solvent during the vacuum drying leaves pores on the polymer films. One common feature shared by most porous surfaces is a raised edge surrounding the pore region, which may be a sign of eruptional behavior caused by fast solvent evaporation under vacuum. As determined by AFM, the pores found on polymer sample AM were around 100 nm in width and 4 nm in depth. Comparatively, polymer sample HBA carried pores about 50 nm in width and 5-8 nm in depth. The non-porous AM and HBA samples were synthesized by bulk polymerization method and used as a control and had relatively smooth surfaces despite a few impurities.

[3] = Solubility of ASA and ACM

In the case of `CC(=O)Oc1ccccc1C(=O)O` [aspirin], the “enthalpy of adsorption of ASA at infinite dilution ΔHASA-gel^∞” value ([1]; PEG400DA microgels) is reported as -9.8 kcal/mol, the “enthalpy of adsorption of ASA at infinite dilution ΔHASA-gel^∞” value ([1]; PEG400DA-co-AM microgels) is reported as -12.3 kcal/mol and the “average induction time τ from linear fit ln(P)=−t/τ” value ([2]; CEA polymer, S=4.75, FIG. 4, in h) is reported as 113.6. The average induction time τ from linear fit ln(P)=−t/τ ([2]; HBA polymer, S=4.75, FIG. 4) was 38.2 h, the “average induction time τ from linear fit ln(P)=−t/τ” value ([2]; STY polymer, S=4.75, FIG. 4, in h) was 243.9 and the “Average induction time τ” value ([2]; non-porous AM polymer, S = 4.75) was 38.2 h. For the same compound, the “Average induction time τ” value ([2]; non-porous HBA polymer, S = 4.75) was 243.9 h, the “Average induction time τ” value ([2]; porous AM polymer, S = 4.2) was 8.8 h and the “Average induction time τ” value ([2]; porous HBA polymer, S = 4.2) was 54.6 h. For the same compound, the solubility ([3]; aqueous with cosolvent or surfactant or cyclodextrin, 38/62 (v/v) ethanol/water mixture at 25° C) was 32 mg/mL (≈ 178 mM) and the solubility in water ([3]; water at 3° C) was “essentially insoluble”.
